Like-named read-outs stand apart in the source and are kept apart here. Marks after values point to notes of the source that are not given here.
Columns and labels:
[1] = test system: human umbilical vein endothelial cell HUVEC; assay: Growth of human umbilical vein endothelial cell HUVEC by CCK8 method; format: cell-based; conditions: Final concentration 1 x 1.0*10^(−5) mol/L
In short: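 HUVEC cells were grown in 1640 medium with 10% FBS, and growth was measured by the CCK8 method. OD values of drug and control wells were corrected by subtracting the blank-well OD.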

lung cancer cell A549 = assay: Effects on the adhesive ability of lung cancer cell A549; format: cell-based, human; conditions: Final concentration 1 x 1.0*10^(−5) mol/L
In short: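 A549 cells in 1640 medium with 10% FBS tested for adhesion to gelatin versus poly-lysine (PLL), with CCK8 used as read-out. Inhibition rate derived from the gelatin/PLL adhesion OD ratio of dosed cells relative to the undosed cell group.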

[2] = test system: human umbilical vein endothelial cell HUVEC; assay: Lumen formation ability of HUVEC (Matrigel method); format: cell-based; conditions: Final concentration 1 x 1.0*10^(−5) mol/L
In short: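 HUVEC at passage 3–5, cultured in M199 at 37° C under 5% CO2, were plated on Matrigel with compound. Spontaneous lumen formation was scored as an inhibition rate.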

[3] = test system: human lung cancer cell strain A549; assay: MTT assay, inhibition of growth of human lung cancer cell strain A549; format: cell-based
In short: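 A549 cells grown in F12 with 10% FBS; growth read by MTT, inhibition rate from blank-corrected OD of drug wells versus control wells.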

[4] = test system: Human colon cancer HT-29 transplantable tumor; assay: Human colon cancer HT-29 transplantable tumor in nude mice; conditions: for Relative tumor reproduction rate T/C (%): HT-29 in nude mice
mice S180 sarcoma = assay: Experimental therapeutic action on S180 sarcoma mice; conditions: for Tumor growth inhibition rate (%): mice S180 sarcoma, 60 mg/kg orally for 9 days
Method: Experimental therapeutic action of the compound in the present invention on S180 sarcoma mice
18-25 g female ICR mice and well grown 7-11 day old mice sarcoma S180 tumor seeds were selected, and the seeds were inoculated into the subcutaneous at the right axillary. After inoculated 24 hours, these mice were randomly divided into cages and orally administrated 60 mg/kg for 9 days. On 10 day, the animals were killed and weighed, and the tumor weights were weighed to calculate average tumor weight in each group, followed by calculating the tumor inhibition rate according to the following formula and T test.

[5] = test system: human lung cancer A549 transplantation tumor; format: in vivo; conditions: BALB/cA nude mice; 60 mg/kg, 6 times every week for 3 weeks; Sorafenib oral 60 mg/kg
In short: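 Female BALB/cA nude mice, 35-40 days old, bearing A549 human lung cancer transplants; 6 per treatment group, 12 saline controls. Compound given at 60 mg/kg, 6 times weekly for 3 weeks, then observed one week.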

[6] = test system: renal carcinoma cell line GCR-1 transplanted tumor; format: in vivo, BALB/cA nude mice; conditions: BALB/cA nude mice; 60 mg/kg, 6 times every week for 3 weeks; Sorafenib oral 60 mg/kg
In short: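 Female BALB/cA nude mice (18–22 g) bearing GCR-1 renal carcinoma xenografts, 6 per treated group, 12 saline controls. Drug given at 60 mg/kg, 6 times weekly for 3 weeks, then one week of observation; tumor inhibition rate reported.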

[7] = test system: human high-metastic lung cancer cell 95D; assay: Inhibition of human high-metastic lung cancer cell 95D migration (Boyden Chamber Transwell); format: cell-based; conditions: Final concentration 1 x 1.0*10^(−5) mol/L
In short: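 Boyden Transwell migration (8 μm pores) of 95D cells, RPMI-1640 with 10% FBS versus serum-free medium; inhibition rate calculated.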

Raf-1(truncated) = assay: Raf-1 inhibitor screening by chemoluminescence method; format: biochemical; conditions: Final concentration 1 x 1.0*10^−5 mol/ml
From the text: 1. Inhibitory activity of the compound of the present invention on raf kinase
Raf-1 inhibitor screening by chemoluminescence method
Westernblot electrophoresis apparatus Rotaryshaker
Raf-1(truncated), Magnesium/ATP Cocktail, MEK1 unactive

[8] = test system: human liver cancer cell bel-7402 transplantation tumor; format: in vivo; conditions: BALB/cA nude mice; 60 mg/kg, 6 times every week for 3 weeks; Sorafenib oral 60 mg/kg
In short: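 Female BALB/cA nude mice (35–40 days, 18–22 g) bearing Bel-7402 xenografts; 6 mice per treated group, 12 in saline controls. Compound dosed at 60 mg/kg, 6 times weekly for 3 weeks, followed by one week of observation; tumor inhibition rate scored against controls.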

[9] = Final concentration 1 x 1.0*10^(−5) mol/L

CNC(=O)c1cc(Oc2ccc(NC(=O)Nc3ccc(Br)c(C(F)(F)F)c3)cc2)c(C)[nH]1 [Compound 15, N-(4-bromo-3-(trifluoromethyl)phenyl)-N′-(4-(2-(N-methylaminoformoxyl)-4-(5-methyl-pyrryl)oxy)phenyl)urea]
Inhibition rate, growth of HUVEC cell [1]: 38.17% | Inhibition rate, adhesion ability of human lung cancer cell A549 (lung cancer cell A549): 68.63% | Inhibition rate, lumen formation ability of HUVEC [2]: 68.64% | Inhibition rate, growth of human lung cancer cell A549 [3, 9]: 72.17% | Relative tumor reproduction rate T/C (%) ([4]; 60 mg/kg ig 9 times): 85.2% | Tumor growth inhibition rate (%) (mice S180 sarcoma): 56.7% | Relative tumor reproduction rate T/C (%) on human lung cancer A549 transplantation tumor in nude mice [5]: 38.7% | Relative tumor reproduction rate T/C (%) on human renal carcinoma GCR-1 cell transplanted tumor model in nude mice [6]: 22.5% | Inhibition rate, 95D cell strain migration [7]: 63.68% | Inhibition rate % on raf kinase (Raf-1(truncated)): 35.5% | Relative tumor reproduction rate T/C (%) on human liver cancer cell bel-7402 transplantation tumor model in nude mice [8]: 33.6%

CCc1ccc(NC(=O)Nc2ccc(Oc3ccnc4cc(F)c(OC)cc34)cc2)cc1C(F)(F)F [Compound 32, N-(4-ethyl-3-(trifluoromethyl)phenyl)-N′-(4-(4-(6-methoxyl-7-fluoro-quinolinyl)oxy)phenyl)urea]
Inhibition rate, growth of HUVEC cell [1]: 24.77% | Inhibition rate, adhesion ability of human lung cancer cell A549 (lung cancer cell A549): 64.73% | Inhibition rate, lumen formation ability of HUVEC [2]: 54.74% | Inhibition rate, growth of human lung cancer cell A549 [3]: 45.76% | Relative tumor reproduction rate T/C (%) ([4]; 60 mg/kg ig 9 times): 46.2% | Tumor growth inhibition rate (%) (mice S180 sarcoma): 49.8% | Relative tumor reproduction rate T/C (%) on human lung cancer A549 transplantation tumor in nude mice [5]: 35.3% | Relative tumor reproduction rate T/C (%) on human renal carcinoma GCR-1 cell transplanted tumor model in nude mice [6]: 32.5% | Inhibition rate, 95D cell strain migration [7]: 66.92% | Inhibition rate % on raf kinase (Raf-1(truncated)): 90.5% | Relative tumor reproduction rate T/C (%) on human liver cancer cell bel-7402 transplantation tumor model in nude mice [8]: 31.4%

COc1ncncc1Oc1ccc(NC(=O)Nc2ccc(Br)c(C(F)(F)F)c2)cc1 [Compound 24, N-(4-bromo-3-(trifluoromethyl)phenyl)-N′-(4-(5-(4-methoxypyrimidinyl)oxy)phenyl)urea]
Inhibition rate, growth of HUVEC cell [1]: 13.32% | Inhibition rate, adhesion ability of human lung cancer cell A549 (lung cancer cell A549): 73.30% | Inhibition rate, lumen formation ability of HUVEC [2]: 93.78% | Inhibition rate, growth of human lung cancer cell A549 [3]: 86.32% | Relative tumor reproduction rate T/C (%) ([4]; 60 mg/kg ig 9 times): 37.8% | Tumor growth inhibition rate (%) (mice S180 sarcoma): 54.6% | Relative tumor reproduction rate T/C (%) on human lung cancer A549 transplantation tumor in nude mice [5]: 15.6% | Relative tumor reproduction rate T/C (%) on human renal carcinoma GCR-1 cell transplanted tumor model in nude mice [6]: 10.8% | Inhibition rate, 95D cell strain migration [7]: 85.48% | Inhibition rate % on raf kinase (Raf-1(truncated)): 91.3% | Relative tumor reproduction rate T/C (%) on human liver cancer cell bel-7402 transplantation tumor model in nude mice [8]: 16.8%

Nc1ccc2c(Oc3ccc(NC(=O)Nc4ccc(F)c(C(F)(F)F)c4)cc3)cncc2c1 [Compound 26, N-(4-fluoro-3-(trifluoromethyl)phenyl)-N′-(4-(4-(7-amino-isoquinolyl)oxy)phenyl)urea]
Inhibition rate, growth of HUVEC cell [1]: 32.50% | Inhibition rate, adhesion ability of human lung cancer cell A549 (lung cancer cell A549): 68.57% | Inhibition rate, lumen formation ability of HUVEC [2]: 70.53% | Inhibition rate, growth of human lung cancer cell A549 [3]: 55.50% | Relative tumor reproduction rate T/C (%) ([4]; 60 mg/kg ig 9 times): 41.1% | Tumor growth inhibition rate (%) (mice S180 sarcoma): 7.6% | Relative tumor reproduction rate T/C (%) on human lung cancer A549 transplantation tumor in nude mice [5]: 33.1% | Relative tumor reproduction rate T/C (%) on human renal carcinoma GCR-1 cell transplanted tumor model in nude mice [6]: 24.2% | Inhibition rate, 95D cell strain migration [7]: 60.52% | Inhibition rate % on raf kinase (Raf-1(truncated)): 15.3% | Relative tumor reproduction rate T/C (%) on human liver cancer cell bel-7402 transplantation tumor model in nude mice [8]: 36.1%

O=C(Nc1ccc(Oc2ncnc3cc(F)ccc23)cc1)Nc1ccc(F)c(C(F)(F)F)c1 [Compound 20, N-(4-fluoro-3-(trifluoromethyl)phenyl)-N′-(4-(4-(7 fluoroquinazolinyl)oxy)phenyl)urea]
Inhibition rate, growth of HUVEC cell [1]: 7.32% | Inhibition rate, adhesion ability of human lung cancer cell A549 (lung cancer cell A549): 95.31% | Inhibition rate, lumen formation ability of HUVEC [2]: 88.54% | Inhibition rate, growth of human lung cancer cell A549 [3]: 88.32% | Relative tumor reproduction rate T/C (%) ([4]; 60 mg/kg ig 9 times): 40.1% | Tumor growth inhibition rate (%) (mice S180 sarcoma): 54.6% | Relative tumor reproduction rate T/C (%) on human lung cancer A549 transplantation tumor in nude mice [5]: 12.1% | Relative tumor reproduction rate T/C (%) on human renal carcinoma GCR-1 cell transplanted tumor model in nude mice [6]: 13.1% | Inhibition rate, 95D cell strain migration [7]: 89.12% | Inhibition rate % on raf kinase (Raf-1(truncated)): 87.7% | Relative tumor reproduction rate T/C (%) on human liver cancer cell bel-7402 transplantation tumor model in nude mice [8]: 17.2%

CNC(=O)c1nc(Oc2ccc(NC(=O)Nc3ccc(F)c(C(F)(F)F)c3)cc2)c2ccc(F)cc2n1 [Compound 5, N-(4-fluoro-3-(trifluoromethyl)phenyl)-N′-(4-(2-(N-methylaminoformoxyl)-4-(7 fluoroquinazolinyl)oxy)phenyl)urea]
Inhibition rate, growth of HUVEC cell [1]: 8.50% | Inhibition rate, adhesion ability of human lung cancer cell A549 (lung cancer cell A549): 87.58% | Inhibition rate, lumen formation ability of HUVEC [2]: 87.50% | Inhibition rate, growth of human lung cancer cell A549 [3, 9]: 93.50% | Relative tumor reproduction rate T/C (%) ([4]; 60 mg/kg ig 9 times): 38.24% | Tumor growth inhibition rate (%) (mice S180 sarcoma): 49.3% | Relative tumor reproduction rate T/C (%) on human lung cancer A549 transplantation tumor in nude mice [5]: 11.6% | Relative tumor reproduction rate T/C (%) on human renal carcinoma GCR-1 cell transplanted tumor model in nude mice [6]: 11.2% | Inhibition rate, 95D cell strain migration [7]: 97.51% | Inhibition rate % on raf kinase (Raf-1(truncated)): 98.9% | Relative tumor reproduction rate T/C (%) on human liver cancer cell bel-7402 transplantation tumor model in nude mice [8]: 15.7%

Nc1ccc2c(Oc3ccc(NC(=O)Nc4ccc(Cl)c(C(F)(F)F)c4)cc3)cncc2c1 [Compound 25, N-(4-chloro-3-(trifluoromethyl)phenyl)-N′-(4-(4-(7-amino-isoquinolyl)oxy)phenyl)urea]
Inhibition rate, growth of HUVEC cell [1]: 23.26% | Inhibition rate, adhesion ability of human lung cancer cell A549 (lung cancer cell A549): 63.51% | Inhibition rate, lumen formation ability of HUVEC [2]: 79.79% | Inhibition rate, growth of human lung cancer cell A549 [3]: 63.26% | Relative tumor reproduction rate T/C (%) ([4]; 60 mg/kg ig 9 times): 79.5% | Tumor growth inhibition rate (%) (mice S180 sarcoma): 55.8% | Relative tumor reproduction rate T/C (%) on human lung cancer A549 transplantation tumor in nude mice [5]: 39.4% | Relative tumor reproduction rate T/C (%) on human renal carcinoma GCR-1 cell transplanted tumor model in nude mice [6]: 31.2% | Inhibition rate, 95D cell strain migration [7]: 59.76% | Inhibition rate % on raf kinase (Raf-1(truncated)): 11.5% | Relative tumor reproduction rate T/C (%) on human liver cancer cell bel-7402 transplantation tumor model in nude mice [8]: 29.1%

CCNC(=O)c1cc(Oc2ccc(NC(=O)Nc3ccc(Cl)c(OC)c3)c(OC)c2)c2ccc([N+](=O)[O-])cc2n1 [Compound 36, N-(4-chloro-3-methoxyphenyl)-N′-(2-methoxyl-4-(2-(N-ethylcarbamyl)-4-(7-nitryl-quinolinyl)oxy)phenyl)urea]
Inhibition rate, growth of HUVEC cell [1]: 12.45% | Inhibition rate, adhesion ability of human lung cancer cell A549 (lung cancer cell A549): 74.50% | Inhibition rate, lumen formation ability of HUVEC [2]: 64.50% | Inhibition rate, growth of human lung cancer cell A549 [3]: 72.45% | Relative tumor reproduction rate T/C (%) ([4]; 60 mg/kg ig 9 times): 41.5% | Tumor growth inhibition rate (%) (mice S180 sarcoma): 55.1% | Relative tumor reproduction rate T/C (%) on human lung cancer A549 transplantation tumor in nude mice [5]: 37.9% | Relative tumor reproduction rate T/C (%) on human renal carcinoma GCR-1 cell transplanted tumor model in nude mice [6]: 25.9% | Inhibition rate, 95D cell strain migration [7]: 84.59% | Inhibition rate % on raf kinase (Raf-1(truncated)): 81.2% | Relative tumor reproduction rate T/C (%) on human liver cancer cell bel-7402 transplantation tumor model in nude mice [8]: 37.9%

N-(4-chloro-3-(trifluoromethyl)phenyl)-N′-(4-(2-(N-methylaminoformoxyl)-4-(6-methoxyquinolinyl)oxy))phenyl)urea [Compound 1]
Inhibition rate, growth of HUVEC cell [1]: 9.20% | Inhibition rate, adhesion ability of human lung cancer cell A549 (lung cancer cell A549): 60.22% | Inhibition rate, lumen formation ability of HUVEC [2]: 72.22% | Inhibition rate, growth of human lung cancer cell A549 [3, 9]: 50.20% | Relative tumor reproduction rate T/C (%) ([4]; 60 mg/kg ig 9 times, 60 mg/kg): 55.42% | Weight (g) d0 ([4]; nude mouse body weight d0, 60 mg/kg): 19.5 ± 1.0 g | Weight (g) d13 ([4]; nude mouse body weight d13, 60 mg/kg ig 9 times): 20.5 ± 1.1 g | RTV ([4]; relative tumor volume, 60 mg/kg ig 9 times): 2.81 ± 1.05 | TV d0 ([4]; tumor volume d0, 60 mg/kg): 128 ± 34 | TV d13 ([4]; tumor volume d13, 60 mg/kg ig 9 times): 359 ± 108 | Tumor weight x ± SD (mice S180 sarcoma; 60 mg/kg ig for 9 days, day 10): 0.99 ± 0.20 g | Tumor growth inhibition rate (%) (mice S180 sarcoma): 38.5% | Weight (g) Start (mice S180 sarcoma; mouse body weight at start, 60 mg/kg ig): 18.7 ± 1.9 g | Weight (g) Final (mice S180 sarcoma; mouse body weight final, 60 mg/kg ig for 9 days): 22.3 ± 1.3 g | Relative tumor reproduction rate T/C (%) on human lung cancer A549 transplantation tumor in nude mice [5]: 38.7% | Relative tumor reproduction rate T/C (%) on human renal carcinoma GCR-1 cell transplanted tumor model in nude mice [6]: 30.5% | Inhibition rate, 95D cell strain migration [7]: 80.21% | Inhibition rate % on raf kinase (Raf-1(truncated)): 75.0% | Relative tumor reproduction rate T/C (%) on human liver cancer cell bel-7402 transplantation tumor model in nude mice [8]: 33.7%
